Source: publication PMC9858427, “Design, synthesis and biological evaluation of 2-((4-sulfamoylphenyl)amino)-pyrrolo[2,3-d]pyrimidine derivatives as CDK inhibitors” (Journal of Enzyme Inhibition and Medicinal Chemistry, 2023)
Read-outs that look alike come from different tables or passages of the source.

Legend:
[1] = target: CDK9 (Homo sapiens, UniProt P50750); test: CDK9 kinase IC50, Mobility shift assay; format: biochemical
Protocol: (§1) CDK kinase activity (IC50 values and inhibitory rate at single concentration) was measured using the kinase profiling services (Shanghai ChemPartner Co., Ltd). Compounds were sent to ChemPartner as a solution in DMSO at concentration of 10 mM.

[2] = target: CDK4 (Homo sapiens, UniProt P11802); test: CDK4 kinase IC50, Mobility shift assay; format: biochemical
Protocol: as §1

[3] = system: BxPC-3; test: MTT proliferation assay in BxPC-3 cells; format: cell-based; conditions: Homo sapiens, 72 h drug exposure
Protocol: (§2) The human pancreatic carcinoma MIA PaCa-2 was purchased from China Centre for Type Culture Collection, AsPC-1 and BxPC-3 cell Lines were purchased from Cell Centre of the Institute of Basic Medical Sciences, Chinese Academy of Medical Sciences and Peking Union Medical College. PANC-1 was kindly provided by Nankai Hospital (Tianjin, China). These cancer cell lines were cultured according to the manufacturer’s instruction.
(§3) Cells were planted in 96-well plates at a density of 3000–4000 cells per well and incubated at 37 °C in a humidified CO2 incubator for 24 h. Then 3-fold diluted concentrations of tested compound were added respectively which was dissolved by DMSO in the ratio of 1:1000. After indicated incubation period, MTT was added to each well and incubated for 4 h at 37 °C. Then, the supernatant was discarded gently, and the precipitate was dissolved in 100 µL of DMSO in each well. The absorbance (A) at 570 nm was detected with a microplate reader (Multiskan MK3; Thermo Fisher Scientific, MA, USA). Vehicle-treated cells were served as the control for the calculation of relative cell viability (%) of treated group at single concentration. IC50 value was calculated directly from the inhibition curve of serial dilution of test compound and was expressed as mean ± SD using the SPSS statistical software (SPSS17.0 Inc., Chicago, IL, USA).

[4] = target: CDK7 (Homo sapiens, UniProt P50613); test: CDK7 kinase IC50, Mobility shift assay; format: biochemical
Protocol: as §1

[5] = Drug concentration in tumour tissue and plasma of tumour-bearing mice; format: in vivo, BALB/C nude mice; conditions: for concentration at 1 h / concentration at 4 h: female, BALB/C nude, mouse, tumour-bearing mice (n = 3); for concentration at 1 h: 1.0 h after 30 mg/kg single oral dosing; for concentration at 4 h: 4.0 h after 30 mg/kg single oral dosing
Protocol: (§4) AsPC-1 (5 × 10^7) cells were injected subcutaneously into 5-week-old female BALB/C nude mice (Beijing Huafukang Bioscience CO. Inc, Beijing, China). After two weeks, mice were omogenizamised and treated with vehicle, gemcitabine (GCTB), or test compound. Blank solvent and test compound was administered by oral gavage (10 ml/kg) with once daily of five days and followed by 2 days off in each week, GCTB was given once a week by 50 mg/kg intraperitoneal injection. Mice were inspected daily for clinical signs, both tumour diameters and body weight were determined 3 times weekly. Tumour volumes were calculated according to the formula “tumor volume (V) = length × width^2/2”. Median TGI values were calculated as follows: TGI = 100 × [1-(Vtreated group at day20-Vtreated group at day1)/(Vvehicle group at day20-Vvehicle group at day1)]. Data were plotted as average with SD in the graphical representation of tumour growth. The p values obtained from the two-way ANOVA analysis. Meanwhile, main organs of mice were collected, formalin-fixed and paraffin-embedded for pathological analysis by H&E dyeing. For drug concentration determination, blood and tumour tissues were collected at indicated time after single administration. Standard curve of test compound was established in the acquisition mode of SIM using a SHIMADZU LC-MS instrument. Blood kept in anticoagulant tube coated with heparin sodium was centrifuged to provide the supernatant, which was followed by added with 3-fold acetonitrile to precipitate plasma protein. After centrifugation at 10 × 10^3 for 5 min, the supernatant was injected directedly into LC-MS instrument for quantification of drug concentration. As for tumour tissues, omogenizationation (Precellys Evolution) was done after weighed accurately and added with 3-fold saline. After centrifugation under same condition as plasma samples, supernatant was separated and injected into LC-MS for quantification.

[6] = system: MIA PaCa-2 cells; test: Apoptosis analysis by PI and annexin V-FITC staining and flow cytometry; format: cell-based, human; conditions: 24 h treatment
Protocol: MIA PaCa-2 cells were incubated with test compound at given concentration for indicated time in 6 well plates. The cells were collected and washed with cold PBS for two times. For cell cycle analysis, cells were fixed with 1 ml of 70% ethanol at −20 °C overnight then re-suspended with 400 µL binding buffer at density of 10^6 cells/mL, with PI staining for 30 min at room temperature. DNA contents were analysed by a BD Accuri C6 flow cytometry (BD Biosciences, Mountain View, CA, USA). For cell apoptosis analysis, after centrifugation and removal of the supernatants, cells were resuspended in 500 µL of 1 ×binding buffer which was then added to 5 µL of annexin V-FITC and incubated at room temperature for 10 min. After adding 10 µL of PI the cells were incubated at room temperature for another 10 min, and their fluorescence intensity evaluated by a BD Accuri C6 (BD Biosciences, Mountain View, CA, USA).

[7] = system: MIA PaCa-2 cells; test: MTT proliferation assay in MIA PaCa-2 cells; format: cell-based, human; conditions: Homo sapiens, MIA PaCa-2, 72 h drug exposure
Protocol: as §2
as §3, with “Then” for “Cells were planted in 96-well plates at a density of 3000–4000 cells per well and incubated at 37 °C in a humidified CO2 incubator for 24 h. Then”

[8] = system: PANC-1; test: MTT proliferation assay in PANC-1 cells; format: cell-based; conditions: Homo sapiens, 72 h drug exposure
Protocol: as §2, §3

[9] = system: AsPC-1; test: MTT proliferation assay in AsPC-1 cells; format: cell-based; conditions: Homo sapiens, ASPC1; 72 h drug exposure
Protocol: as §2, §3

[10] = Body weight and H&E pathology of main organs in xenograft mice; format: in vivo, BALB/C nude mice
Protocol: as §4

[11] = plasma, read-out: Drug concentration (µM) Plasma
[12] = read-out: Drug concentration (µM) Tumour

Sequence of CDK4 (P11802 whole entry): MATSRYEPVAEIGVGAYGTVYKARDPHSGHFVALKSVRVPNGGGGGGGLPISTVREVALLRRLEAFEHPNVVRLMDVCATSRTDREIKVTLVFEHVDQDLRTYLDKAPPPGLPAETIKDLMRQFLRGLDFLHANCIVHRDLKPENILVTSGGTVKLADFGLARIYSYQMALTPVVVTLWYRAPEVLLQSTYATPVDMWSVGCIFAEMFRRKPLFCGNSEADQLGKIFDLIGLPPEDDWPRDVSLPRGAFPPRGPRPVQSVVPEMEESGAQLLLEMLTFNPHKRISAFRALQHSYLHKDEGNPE
Sequence of CDK4 (P30281 whole entry partner): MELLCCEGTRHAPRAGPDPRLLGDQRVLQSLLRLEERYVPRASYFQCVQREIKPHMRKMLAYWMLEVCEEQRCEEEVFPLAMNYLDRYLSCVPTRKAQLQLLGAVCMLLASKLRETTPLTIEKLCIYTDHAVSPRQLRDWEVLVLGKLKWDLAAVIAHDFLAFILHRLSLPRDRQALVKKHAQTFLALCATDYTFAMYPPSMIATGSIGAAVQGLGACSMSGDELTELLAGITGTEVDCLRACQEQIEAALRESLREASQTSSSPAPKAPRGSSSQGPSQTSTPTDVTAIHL
Sequence of CDK9 (P50750 whole entry): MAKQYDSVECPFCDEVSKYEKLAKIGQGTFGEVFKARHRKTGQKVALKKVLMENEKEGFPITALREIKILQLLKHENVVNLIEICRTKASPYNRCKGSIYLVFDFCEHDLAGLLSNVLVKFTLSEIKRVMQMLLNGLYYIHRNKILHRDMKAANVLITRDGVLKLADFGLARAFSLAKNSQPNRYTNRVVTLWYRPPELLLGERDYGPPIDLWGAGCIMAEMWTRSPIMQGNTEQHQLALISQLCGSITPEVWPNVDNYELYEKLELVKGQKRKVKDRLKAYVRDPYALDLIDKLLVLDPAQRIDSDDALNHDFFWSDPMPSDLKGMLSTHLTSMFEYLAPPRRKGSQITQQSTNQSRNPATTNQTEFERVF
Sequence of CDK9 (O60563 whole entry partner): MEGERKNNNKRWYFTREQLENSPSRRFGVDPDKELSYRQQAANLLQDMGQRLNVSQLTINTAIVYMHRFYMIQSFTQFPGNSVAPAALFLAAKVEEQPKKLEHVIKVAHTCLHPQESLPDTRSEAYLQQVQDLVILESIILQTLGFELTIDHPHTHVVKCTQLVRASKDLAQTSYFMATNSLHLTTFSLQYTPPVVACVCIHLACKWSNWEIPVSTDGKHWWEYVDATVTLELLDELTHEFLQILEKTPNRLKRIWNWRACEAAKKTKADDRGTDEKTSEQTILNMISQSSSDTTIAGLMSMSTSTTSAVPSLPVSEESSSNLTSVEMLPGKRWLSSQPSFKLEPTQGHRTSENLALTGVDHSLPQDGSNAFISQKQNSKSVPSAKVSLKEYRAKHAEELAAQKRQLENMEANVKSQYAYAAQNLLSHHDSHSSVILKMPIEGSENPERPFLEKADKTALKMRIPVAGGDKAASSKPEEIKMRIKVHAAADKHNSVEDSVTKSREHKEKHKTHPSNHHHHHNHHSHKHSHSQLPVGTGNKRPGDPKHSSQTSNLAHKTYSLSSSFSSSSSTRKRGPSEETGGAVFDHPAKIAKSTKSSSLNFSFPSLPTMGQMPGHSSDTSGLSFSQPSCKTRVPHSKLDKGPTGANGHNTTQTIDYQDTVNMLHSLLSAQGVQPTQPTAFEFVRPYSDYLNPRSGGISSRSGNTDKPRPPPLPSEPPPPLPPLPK
Sequence of CDK7 (P50613 whole entry): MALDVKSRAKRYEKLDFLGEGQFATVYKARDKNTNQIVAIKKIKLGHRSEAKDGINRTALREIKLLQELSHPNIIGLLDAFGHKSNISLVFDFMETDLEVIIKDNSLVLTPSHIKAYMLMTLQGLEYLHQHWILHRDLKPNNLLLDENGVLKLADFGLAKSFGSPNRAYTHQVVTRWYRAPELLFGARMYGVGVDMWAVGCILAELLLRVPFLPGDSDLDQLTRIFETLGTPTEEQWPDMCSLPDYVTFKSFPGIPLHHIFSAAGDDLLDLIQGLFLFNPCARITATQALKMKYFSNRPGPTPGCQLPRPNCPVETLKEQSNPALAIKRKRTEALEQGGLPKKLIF
Sequence of CDK7 (P51946 whole entry partner): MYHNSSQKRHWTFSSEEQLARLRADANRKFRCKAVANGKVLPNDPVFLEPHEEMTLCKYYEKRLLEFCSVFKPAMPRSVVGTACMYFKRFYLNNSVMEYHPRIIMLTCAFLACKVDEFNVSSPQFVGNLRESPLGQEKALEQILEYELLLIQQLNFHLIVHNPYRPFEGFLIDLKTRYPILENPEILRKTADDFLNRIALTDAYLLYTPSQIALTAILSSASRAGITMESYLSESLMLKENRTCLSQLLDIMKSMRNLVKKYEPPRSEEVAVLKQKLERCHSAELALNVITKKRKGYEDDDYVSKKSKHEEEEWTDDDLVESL
Sequence of CDK7 (P51948 whole entry partner): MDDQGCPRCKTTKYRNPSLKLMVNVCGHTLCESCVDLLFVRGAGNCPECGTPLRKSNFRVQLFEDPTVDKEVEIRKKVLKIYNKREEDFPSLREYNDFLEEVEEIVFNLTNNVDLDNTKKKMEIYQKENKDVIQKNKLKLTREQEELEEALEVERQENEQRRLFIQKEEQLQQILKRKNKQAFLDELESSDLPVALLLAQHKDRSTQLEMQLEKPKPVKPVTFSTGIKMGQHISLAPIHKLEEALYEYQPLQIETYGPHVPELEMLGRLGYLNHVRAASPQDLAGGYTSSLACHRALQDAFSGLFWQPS

**Q.** With `CN(C)C(=O)c1cc2cnc(Nc3ccc(S(N)(=O)=O)cc3)nc2n1C1CCCC1` [compound 2g, 7-Cyclopentyl-N,N-dimethyl-2-((4-sulfamoylphenyl)amino)-7H-pyrrolo[2,3-d]pyrimidine-6-carboxamide] as the compound, how does the IC50 [1] read?
**A.** 5 nM

**Q.** What about the IC50 [2] of the same compound?
**A.** 12 nM

**Q.** And the IC50 [3]?
**A.** 0.226 ± 0.065 µM

**Q.** And the IC50 [4]?
**A.** > 10000 nM

**Q.** And the “drug concentration in plasma and tumour tissue relative to cellular IC50 value” ([5]; 30 mg/kg single oral dosing, both plasma and tumour tissue)?
**A.** higher than 2 fold

**Q.** What about the concentration at 1 h [5, 11] of the same compound?
**A.** 7.46 ± 1.95 µM

**Q.** What about the concentration at 4 h [5, 11] of the same compound?
**A.** 0.53 ± 0.41 µM

**Q.** What about the concentration at 1 h [5, 12] of the same compound?
**A.** 3.13 ± 0.64 µM

**Q.** What about the concentration at 4 h [5, 12] of the same compound?
**A.** 0.48 ± 0.34 µM

**Q.** What about the “number of late apoptotic cells” value [6] of the same compound?
**A.** increased in a dose-dependent manner

**Q.** What about the IC50 [7] of the same compound?
**A.** 0.52 ± 0.67 µM

**Q.** And the IC50 [8]?
**A.** 11 ± 4.97 µM

**Q.** And the IC50 [9]?
**A.** 1.4 ± 0.034 µM

**Q.** And the “pathological change in main organs (H&E)” value ([10]; after 3-week treatment)?
**A.** no obvious pathological change

**Q.** And the body weight change ([10]; high dose of 2g, first ten days of administration)?
**A.** obvious decrease of body weight
